Paper PMC6155683, “Pharmacokinetics Studies of 12 Alkaloids in Rat Plasma after Oral Administration of Zuojin and Fan-Zuojin Formulas” (Molecules : A Journal of Synthetic Chemistry and Natural …, 2017)
Where two headings read alike, the source gives them in different places.

Legend:
[1] = Dose modified systemic exposure (AUC0→∞/D, Cmax/D)
Method: Because the alkaloids content in ZJ and FZJ were no longer linear with the proportion of CR and EF after extraction process, AUC0→∞/D (ratio of AUC0→∞ and dose) and Cmax/D (ratio of Cmax and dose) were calculated to estimate the dose modified systemic exposure levels of the 12 alkaloids (Table 3). […] Physicochemical properties of these alkaloids had been calculated in silico to predict their human colon adenocarcinoma cell (Caco-2) permeability according to the three-property based rule (3PRule). Polar surface area (PSA), logarithm of the n-octanol/water distribution coefficient (LogD), molecular weight (MW), hydrogen bond donors (HBD), hydrogen bond acceptors (HBA), number of free rotatable bonds (NRB) and molar solubility (S) of the alkaloids were retrieved from SciFinder® (American Chemical Society).

[2] = PK study of the 12 alkaloids in rat plasma after oral administration of ZJ and FZJ extract (LC–MS/MS); format: in vivo; conditions: for AUC(0-t) / AUC(0-inf) / Cmax / MRT last / MRT inf / half-life / Tmax / Tsec (time of the secondary peak in C–T curve) / Csec (drug concentration of the secondary peak in C–T curve): rat plasma; for AUC(0-t) / AUC(0-inf) / Cmax / MRT last / MRT inf / half-life / Csec (drug concentration of the secondary peak in C–T curve): mean ± SD, n = 6; for AUC(0-t): read-out: AUC0→t; for AUC(0-inf): read-out: AUC0→∞; for Cmax: read-out: Cmax; for MRT last: read-out: MRT0→t (converted); for MRT inf: read-out: MRT0→∞ (converted); for half-life: read-out: t1/2; for Tmax: read-out: Tmax (converted)
Method: The time schedule included 15 time-points and six rats were sampled at each time-point. All the rats were orally administered with ZJ extract (suspended in water) at a dose of 3.38 g/kg body weight (dosages of the 12 alkaloids were shown in Table S4), equivalent to crude drug dose of 12 g/kg body weight. Blood samples were collected from the suborbital vein of the rats at 10, 20, 30, 60, 90, 120, 180, 240, 300, 330, 360, 480, 720, 1440, 2160 min after administration, and centrifuged immediately at 5000 rpm for 10 min. The plasma samples were stored at −20 °C until analysis.
Similarly, the time schedule of other rats included 15 time-points and six rats were orally administered with FZJ extract at a dose of 3.76 g/kg body weight (also equivalent to crude drug dose of 12 g/kg body weight, Table S4). Blood samples were collected and treated as mentioned above in the PK study of ZJ extract.
PK parameters of the 12 alkaloids including AUC0→t, AUC0→∞, mean retention time (MRT0→t, MRT0→∞), and elimination half-life (t1/2) were calculated with non-compartmental method by DAS 2.0 software (Mathematical Pharmacology Professional Committee of China, Shanghai, China). Maximum plasma drug concentration (Cmax) and time to reach the maximum plasma drug concentration (Tmax) were observed directly from the detected C–T data. The results were expressed as arithmetic mean ± standard deviation (SD).

[3] = Stability of analytes in rat plasma under storage conditions; format: physicochemical; conditions: n = 6; for Stability RE, 3 freeze-thaw cycles / Stability RE, 30 days at −20 °C: rat plasma; for Stability RE, processed samples' stability: room temperature 24 h
Method: The stabilities of analytes in plasma were assessed by analyzing the QC samples at three concentration levels under the following storage conditions: after three freeze (−20 °C)-thaw (room temperature) cycles; stored at −20 °C for 30 days, and comparing the results with those of freshly prepared QC samples. Stabilities of the processed samples at room temperature for 24 h were also assessed.

[4] = Two-compartment model fitting of C–T curves (DAS 2.0); format: in vivo, rat
Excerpt: Double peaks in C–T curves were observed repeatedly in the PK study of ZJ and related TCM prescriptions, but explanations to the phenomenon were still ambiguous. Generally, possible reasons for the double peak phenomenon could be summarized as follows: (a) enterohepatic circulation; […] (c) irregular pattern of gastric emptying. […] Moreover, Tmax of the alkaloids after administration of ZJ extract were deferred from that of FZJ administration. […] It probably play a major role in the double peak phenomenon, since the GI motility can affect the drug absorption.

| Compound | AUC0→∞/D (ratio of AUC0→∞ and dose) ([1]; oral ZJ extract) | Cmax/D (ratio of Cmax and dose) ([1]; oral ZJ extract) | AUC(0-t) ([2]; 3.38 g/kg, oral ZJ extract) [ng·h/mL] | AUC(0-inf) ([2]; 3.38 g/kg, oral ZJ extract) [ng·h/mL] | Cmax ([2]; 3.38 g/kg, oral ZJ extract) [ng/mL] | MRT last ([2]; 3.38 g/kg, oral ZJ extract) [h] | MRT inf ([2]; 3.38 g/kg, oral ZJ extract) [h] | half-life ([2]; 3.38 g/kg, oral ZJ extract) [h] | Tmax ([2]; 3.38 g/kg, oral ZJ extract) [h] | Tsec (time of the secondary peak in C–T curve) ([2]; oral ZJ extract) [min] | Csec (drug concentration of the secondary peak in C–T curve) ([2]; oral ZJ extract) [ng/mL] | Stability RE, 3 freeze-thaw cycles ([3]; high QC concentration) [%] | Stability RE, 30 days at −20 °C ([3]; high QC concentration) [%] | Stability RE, 3 freeze-thaw cycles ([3]; low QC concentration) [%] | Stability RE, 30 days at −20 °C ([3]; low QC concentration) [%] | Stability RE, 3 freeze-thaw cycles ([3]; medium QC concentration) [%] | Stability RE, 30 days at −20 °C ([3]; medium QC concentration) [%] | Stability RE, processed samples' stability ([3]; high QC concentration) [%] | Stability RE, processed samples' stability ([3]; low QC concentration) [%] | Stability RE, processed samples' stability ([3]; medium QC concentration) [%] | also measured |
| --- | --- | --- | --- | --- | --- | --- | --- | --- | --- | --- | --- | --- | --- | --- | --- | --- | --- | --- | --- | --- | --- |
| O=c1c2c3c(ccc2cc2n1CCc1cc4c(cc1-2)OCO4)OCO3 [8-oxocoptisine] | 44.44 | 3.98 | 24.7 ± 3.9 | 27 ± 2.23 | 2.46 ± 1.17 | 10.1 | 13.5 | 8.93 ± 2.65 | 5 | 90 | 2.42 ± 0.89 | −12.48 | −14.51 | 6.73 | 6.72 | 7.48 | 9.66 | 10.05 | −3.71 | 10.68 | plasma concentrations at most time points ([2]; oral FZJ extract): below the LLOQ |
| COc1cc2c(cc1OC)-c1cc3ccc4c(c3c[n+]1CC2)OCO4 [epiberberine] | 0.62 | 0.12 | 68.5 ± 15.9 | 69.6 ± 15.5 | 13.7 ± 7.05 | 10.8 | 11.6 | 6.11 ± 1.7 | 5 | 90 | 5.51 ± 2.17 | −12.84 | −6.2 | −3.64 | 13.92 | −6.12 | −13.86 | −10.77 | 2.78 | −8.85 | AUC0→∞/D (ratio of AUC0→∞ and dose) ([1]; oral FZJ extract): 1.91; Cmax/D (ratio of Cmax and dose) ([1]; oral FZJ extract): 0.81; AUC(0-t) ([2]; 3.76 g/kg, oral FZJ extract): 10.1 ± 1.09 ng·h/mL; AUC(0-inf) ([2]; 3.76 g/kg, oral FZJ extract): 11.4 ± 1.27 ng·h/mL; Cmax ([2]; 3.76 g/kg, oral FZJ extract): 4.82 ± 1.97 ng/mL; MRT last ([2]; 3.76 g/kg, oral FZJ extract): 3.89 h; MRT inf ([2]; 3.76 g/kg, oral FZJ extract): 5.26 h; half-life ([2]; 3.76 g/kg, oral FZJ extract): 3.92 ± 1.69 h; Tmax ([2]; 3.76 g/kg, oral FZJ extract): 3 h |
| Cn1c(=O)n(CCC2(O)C(=O)Nc3ccccc32)c(=O)c2ccccc21 (centres unmarked) [wuchuyuamide-I] | 172.57 | 46.62 | 11.5 ± 1.4 | 12.8 ± 1.43 | 3.45 ± 1.73 | 3.86 | 5.22 | 3.64 ± 1.5 | 1.5 | 20 | 2.55 ± 0.38 | 0.37 | −1.38 | 18.91 | 14.46 | −14.69 | −10.79 | −10.58 | 15.1 | −14.07 | AUC0→∞/D (ratio of AUC0→∞ and dose) ([1]; oral FZJ extract): 278.39; Cmax/D (ratio of Cmax and dose) ([1]; oral FZJ extract): 59.61; AIC (Akaike's information criterion method), two-compartment model fitting ([4]; oral FZJ extract): 66.844 ± 7.076; r^2 (correlation coefficient method), two-compartment model fitting ([4]; oral FZJ extract): 0.519 ± 0.407; AIC (Akaike's information criterion method), two-compartment model fitting ([4]; oral ZJ extract): 35.057 ± 11.851; r^2 (correlation coefficient method), two-compartment model fitting ([4]; oral ZJ extract): 0.544 ± 0.140; AUC(0-t) ([2]; 3.76 g/kg, oral FZJ extract): 48.2 ± 8.86 ng·h/mL; AUC(0-inf) ([2]; 3.76 g/kg, oral FZJ extract): 50.1 ± 8.81 ng·h/mL; Cmax ([2]; 3.76 g/kg, oral FZJ extract): 10.7 ± 4.43 ng/mL; MRT last ([2]; 3.76 g/kg, oral FZJ extract): 5.77 h; MRT inf ([2]; 3.76 g/kg, oral FZJ extract): 6.89 h; half-life ([2]; 3.76 g/kg, oral FZJ extract): 4.92 ± 1.83 h; Tmax ([2]; 3.76 g/kg, oral FZJ extract): 0.5 h |
| COc1cc2c(cc1OC)-c1cc3ccc4c(c3c(=O)n1CC2)OCO4 [8-oxoepiberberine] | 97.25 | 13.92 | 14.3 ± 2.32 | 16.6 ± 3.22 | 2.38 ± 1.14 | 7.51 | 12.3 | 9.88 ± 4.57 | 1.5 | 300 | 1.85 ± 0.99 | −8.93 | −2.71 | −14.18 | −13.41 | 0.37 | 0.36 | −7.73 | −7.14 | 9.35 | plasma concentrations at most time points ([2]; oral FZJ extract): below the LLOQ |
